Source: the NIST ThermoML archive (doi:10.1016/j.jct.2011.08.019)
Values joined by “and” are separate entries in the source; they are usually repeats but may differ in a detail not shown here. Equal entries are not always repeated.

Assay: molar heat capacity at constant pressure
Conditions: 101.33 kPa, Liquid, Small sample (50 mg) DSC

CCCCCCCCCCCCCC[P+](CCCCCC)(CCCCCC)CCCCCC.FC(F)(F)C(F)(F)[P-](F)(F)(F)(C(F)(F)C(F)(F)F)C(F)(F)C(F)(F)F
Conditions | molar heat capacity at constant pressure
338.15 K | 1543.8 J/K/mol [middle of 4 runs]
343.15 K | 1547.5 J/K/mol [middle of 4 runs]
348.15 K | 1556.8 J/K/mol [middle of 4 runs]
353.15 K | 1566.1 J/K/mol and 1563.3 J/K/mol
358.15 K | 1577.2 J/K/mol and 1574.4 J/K/mol
363.15 K | 1587.4 J/K/mol and 1583.7 J/K/mol and 1585.6 J/K/mol
368.15 K | 1596.7 J/K/mol [middle of 4 runs]
373.15 K | 1604.1 J/K/mol [middle of 4 runs]
378.15 K | 1615.3 J/K/mol [middle of 4 runs]
383.15 K | 1626.4 J/K/mol [middle of 4 runs]
388.15 K | 1634.8 J/K/mol
393.15 K | 1645 J/K/mol [middle of 4 runs]
398.15 K | 1652.4 J/K/mol [middle of 4 runs]
403.15 K | 1661.7 J/K/mol [middle of 4 runs]
408.15 K | 1668.2 J/K/mol and 1669.2 J/K/mol
413.15 K | 1678.4 J/K/mol and 1677.5 J/K/mol
418.15 K | 1688.7 J/K/mol and 1685.9 J/K/mol and 1687.7 J/K/mol
423.15 K | 1697 J/K/mol [middle of 4 runs]
428.15 K | 1700.7 J/K/mol [middle of 4 runs]
433.15 K | 1707.2 J/K/mol and 1711 J/K/mol
438.15 K | 1722.1 J/K/mol [middle of 4 runs]
443.15 K | 1727.7 J/K/mol [middle of 4 runs]
448.15 K | 1735.1 J/K/mol [middle of 4 runs]
453.15 K | 1743.5 J/K/mol [middle of 4 runs]
458.15 K | 1750 J/K/mol and 1753.7 J/K/mol and 1739.7 J/K/mol
463.15 K | 1756.5 J/K/mol [middle of 4 runs]
468.15 K | 1761.1 J/K/mol [middle of 4 runs]
473.15 K | 1763.9 J/K/mol [middle of 4 runs]
478.15 K | 1771.3 J/K/mol [middle of 4 runs]
483.15 K | 1768.5 J/K/mol and 1776 J/K/mol and 1780.6 J/K/mol
488.15 K | 1785.3 J/K/mol [middle of 4 runs]
493.15 K | 1785.3 J/K/mol [middle of 4 runs]
498.15 K | 1787.1 J/K/mol [middle of 4 runs]
503.15 K | 1798.3 J/K/mol [middle of 4 runs]
508.15 K | 1802 J/K/mol [middle of 4 runs]
513.15 K | 1809.4 J/K/mol and 1803.8 J/K/mol and 1805.7 J/K/mol

CCCCCCCCCCCCCC[P+](CCCCCC)(CCCCCC)CCCCCC.[Cl-] [trihexyl(tetradecyl)phosphonium chloride]
Conditions | molar heat capacity at constant pressure
338.15 K | 835 J/K/mol and 833.5 J/K/mol and 834 J/K/mol
343.15 K | 838.7 J/K/mol and 837.1 J/K/mol and 837.6 J/K/mol
348.15 K | 842.8 J/K/mol [middle of 4 runs]
353.15 K | 850.6 J/K/mol and 848.5 J/K/mol and 849.1 J/K/mol
358.15 K | 857.9 J/K/mol and 855.3 J/K/mol and 854.8 J/K/mol
363.15 K | 863.6 J/K/mol and 861.5 J/K/mol and 860.5 J/K/mol
368.15 K | 870.9 J/K/mol and 868.3 J/K/mol and 867.8 J/K/mol
373.15 K | 876.6 J/K/mol and 874.5 J/K/mol and 874 J/K/mol
378.15 K | 881.8 J/K/mol [middle of 4 runs]
383.15 K | 889.6 J/K/mol and 886.5 J/K/mol and 888 J/K/mol
388.15 K | 893.7 J/K/mol [middle of 4 runs]
393.15 K | 901 J/K/mol and 899.4 J/K/mol and 898.4 J/K/mol
398.15 K | 905.2 J/K/mol [middle of 4 runs]
403.15 K | 910.3 J/K/mol [middle of 4 runs]
408.15 K | 917.6 J/K/mol and 915 J/K/mol and 916.1 J/K/mol
413.15 K | 922.8 J/K/mol [middle of 4 runs]
418.15 K | 928 J/K/mol [middle of 4 runs]
423.15 K | 933.2 J/K/mol and 931.1 J/K/mol and 932.7 J/K/mol
428.15 K | 937.9 J/K/mol [middle of 4 runs]
433.15 K | 944.1 J/K/mol [middle of 4 runs]
438.15 K | 948.8 J/K/mol [middle of 4 runs]
443.15 K | 952.4 J/K/mol and 953.4 J/K/mol and 951.4 J/K/mol
448.15 K | 957.1 J/K/mol [middle of 4 runs]
453.15 K | 961.2 J/K/mol [middle of 4 runs]
458.15 K | 965.4 J/K/mol [middle of 4 runs]
463.15 K | 968 J/K/mol [middle of 4 runs]

CCn1cc[n+](C)c1.O=S(=O)([N-]S(=O)(=O)C(F)(F)F)C(F)(F)F
Conditions | molar heat capacity at constant pressure
343.15 K | 531 J/K/mol and 533.4 J/K/mol and 533.7 J/K/mol
348.15 K | 531.8 J/K/mol and 534.1 J/K/mol and 534.9 J/K/mol
353.15 K | 533 J/K/mol and 536.1 J/K/mol
358.15 K | 537.3 J/K/mol and 537.7 J/K/mol and 534.9 J/K/mol
363.15 K | 536.1 J/K/mol and 538.4 J/K/mol and 539.2 J/K/mol
368.15 K | 537.7 J/K/mol and 539.6 J/K/mol and 540.4 J/K/mol
373.15 K | 538.8 J/K/mol and 541.6 J/K/mol and 542.4 J/K/mol
378.15 K | 540.8 J/K/mol and 542.7 J/K/mol and 543.5 J/K/mol
383.15 K | 541.6 J/K/mol and 543.9 J/K/mol
388.15 K | 542.7 J/K/mol and 545.1 J/K/mol and 545.5 J/K/mol
393.15 K | 544.7 J/K/mol and 546.7 J/K/mol
398.15 K | 545.5 J/K/mol and 547.4 J/K/mol and 548.2 J/K/mol
403.15 K | 547.4 J/K/mol and 549.4 J/K/mol
408.15 K | 548.6 J/K/mol and 550.2 J/K/mol and 549.8 J/K/mol
413.15 K | 549.4 J/K/mol and 552.1 J/K/mol and 550.2 J/K/mol
418.15 K | 550.6 J/K/mol and 552.5 J/K/mol and 551.7 J/K/mol
423.15 K | 551.4 J/K/mol and 552.9 J/K/mol and 552.5 J/K/mol
428.15 K | 552.1 J/K/mol and 553.7 J/K/mol and 552.9 J/K/mol
433.15 K | 552.5 J/K/mol and 554.9 J/K/mol and 555.3 J/K/mol
438.15 K | 554.1 J/K/mol and 556.1 J/K/mol and 555.7 J/K/mol
443.15 K | 554.9 J/K/mol and 556.4 J/K/mol and 556.1 J/K/mol
448.15 K | 555.7 J/K/mol and 557.2 J/K/mol
453.15 K | 556.4 J/K/mol and 558.4 J/K/mol and 556.8 J/K/mol
458.15 K | 557.6 J/K/mol and 558.4 J/K/mol and 558 J/K/mol
463.15 K | 557.6 J/K/mol and 558.8 J/K/mol

CCCC[P+](C)(CCCC)CCCC.COS(=O)(=O)[O-] [tributylmethylphosphonium methyl sulfate]
Conditions | molar heat capacity at constant pressure
343.15 K | 668.1 J/K/mol and 660.8 J/K/mol
348.15 K | 672 J/K/mol and 665.4 J/K/mol
353.15 K | 676.3 J/K/mol and 669.7 J/K/mol
358.15 K | 681.2 J/K/mol and 674.3 J/K/mol
363.15 K | 685.8 J/K/mol and 678.9 J/K/mol
368.15 K | 690.4 J/K/mol and 683.8 J/K/mol
373.15 K | 695.3 J/K/mol and 687.4 J/K/mol
378.15 K | 698.3 J/K/mol and 692.4 J/K/mol
383.15 K | 703.2 J/K/mol and 697.3 J/K/mol
388.15 K | 707.2 J/K/mol and 702.2 J/K/mol
393.15 K | 711.1 J/K/mol and 705.5 J/K/mol
398.15 K | 714.4 J/K/mol and 711.1 J/K/mol
403.15 K | 715 J/K/mol and 715.4 J/K/mol
408.15 K | 720 J/K/mol and 718.6 J/K/mol
413.15 K | 726.2 J/K/mol and 721.3 J/K/mol
418.15 K | 729.2 J/K/mol and 723.9 J/K/mol
423.15 K | 733.1 J/K/mol and 728.8 J/K/mol
428.15 K | 736.4 J/K/mol and 732.4 J/K/mol
433.15 K | 738.4 J/K/mol and 737.4 J/K/mol
438.15 K | 743.3 J/K/mol and 741.6 J/K/mol
443.15 K | 745.9 J/K/mol and 744.6 J/K/mol
448.15 K | 748.9 J/K/mol and 747.6 J/K/mol
453.15 K | 751.8 J/K/mol and 750.8 J/K/mol
458.15 K | 754.4 J/K/mol and 754.1 J/K/mol
463.15 K | 757.4 J/K/mol and 756.1 J/K/mol

CCCCCCCCCCCCCC[P+](CCCCCC)(CCCCCC)CCCCCC.O=S(=O)([N-]S(=O)(=O)C(F)(F)F)C(F)(F)F
Conditions | molar heat capacity at constant pressure
328.15 K | 1373.7 J/K/mol and 1363 J/K/mol and 1359.9 J/K/mol
333.15 K | 1370.6 J/K/mol [middle of 4 runs]
338.15 K | 1375.2 J/K/mol [middle of 4 runs]
343.15 K | 1381.3 J/K/mol [middle of 4 runs]
348.15 K | 1390.5 J/K/mol [middle of 4 runs]
353.15 K | 1400.4 J/K/mol [middle of 4 runs]
358.15 K | 1410.4 J/K/mol and 1399.7 J/K/mol and 1395.1 J/K/mol
363.15 K | 1419.5 J/K/mol [middle of 4 runs]
368.15 K | 1428.7 J/K/mol and 1420.3 J/K/mol and 1426.4 J/K/mol
373.15 K | 1439.4 J/K/mol [middle of 4 runs]
378.15 K | 1445.5 J/K/mol [middle of 4 runs]
383.15 K | 1454.7 J/K/mol [middle of 4 runs]
388.15 K | 1462.3 J/K/mol [middle of 4 runs]
393.15 K | 1470 J/K/mol [middle of 4 runs]
398.15 K | 1479.9 J/K/mol [middle of 4 runs]
403.15 K | 1487.5 J/K/mol and 1478.4 J/K/mol and 1469.2 J/K/mol
408.15 K | 1494.4 J/K/mol [middle of 4 runs]
413.15 K | 1501.3 J/K/mol [middle of 4 runs]
418.15 K | 1508.9 J/K/mol [middle of 4 runs]
423.15 K | 1516.6 J/K/mol [middle of 4 runs]
428.15 K | 1521.9 J/K/mol [middle of 4 runs]
433.15 K | 1533.4 J/K/mol and 1519.6 J/K/mol and 1509.7 J/K/mol
438.15 K | 1541 J/K/mol [middle of 4 runs]
443.15 K | 1544.8 J/K/mol [middle of 4 runs]
448.15 K | 1548.6 J/K/mol [middle of 4 runs]
453.15 K | 1557.8 J/K/mol [middle of 4 runs]
458.15 K | 1561.6 J/K/mol [middle of 4 runs]
463.15 K | 1567.7 J/K/mol [middle of 4 runs]

CCCCCCCCCCCCCC[P+](CCCCCC)(CCCCCC)CCCCCC.N#C[N-]C#N [tetradecyl(trihexyl)phosphonium dicyanamide]
Conditions | molar heat capacity at constant pressure
313.15 K | 1060.2 J/K/mol and 1065.1 J/K/mol and 1061.3 J/K/mol
318.15 K | 1065.7 J/K/mol and 1070.6 J/K/mol and 1067.3 J/K/mol
323.15 K | 1075.6 J/K/mol and 1080 J/K/mol and 1076.1 J/K/mol
328.15 K | 1089.3 J/K/mol and 1086 J/K/mol and 1084.4 J/K/mol
333.15 K | 1094.3 J/K/mol and 1099.2 J/K/mol and 1095.4 J/K/mol
338.15 K | 1105.3 J/K/mol and 1109.1 J/K/mol and 1106.9 J/K/mol
343.15 K | 1114.6 J/K/mol and 1119.6 J/K/mol and 1116.8 J/K/mol
348.15 K | 1124.5 J/K/mol and 1129.5 J/K/mol and 1127.3 J/K/mol
353.15 K | 1135 J/K/mol and 1140.5 J/K/mol and 1137.2 J/K/mol
358.15 K | 1145.4 J/K/mol and 1150.4 J/K/mol and 1147.6 J/K/mol
363.15 K | 1155.3 J/K/mol and 1160.3 J/K/mol
368.15 K | 1164.1 J/K/mol and 1169.1 J/K/mol and 1165.2 J/K/mol
373.15 K | 1172.9 J/K/mol and 1177.9 J/K/mol and 1173.5 J/K/mol
378.15 K | 1180.6 J/K/mol and 1186.1 J/K/mol and 1190.5 J/K/mol
383.15 K | 1188.9 J/K/mol and 1194.4 J/K/mol and 1194.9 J/K/mol
388.15 K | 1197.7 J/K/mol and 1203.2 J/K/mol and 1204.8 J/K/mol
393.15 K | 1205.9 J/K/mol and 1212 J/K/mol and 1214.2 J/K/mol
398.15 K | 1213.6 J/K/mol and 1219.7 J/K/mol and 1220.2 J/K/mol
403.15 K | 1221.3 J/K/mol and 1226.8 J/K/mol and 1227.9 J/K/mol
408.15 K | 1227.4 J/K/mol and 1233.4 J/K/mol and 1234 J/K/mol
413.15 K | 1234.5 J/K/mol and 1241.1 J/K/mol and 1244.4 J/K/mol
